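Compound exposure: 48 hours, 5 concentrations, 96-well plates. GI50 = concentration required for 50% inhibition of growth.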 The source made the active and inactive calls. No stated cut-off is given here; in the data, active = GI50 up to about 1.1 µM and inactive = higher.
What was measured:
Assay in all cases: DTP human tumour cell line panel, 48 h
UO-31 = test system: UO-31
MDA-MB-231 = test system: MDA-MB-231
OVCAR-5 = test system: OVCAR-5
MOLT-4 = test system: MOLT-4
CCRF-CEM = test system: CCRF-CEM
NCI-H460 = test system: NCI-H460
MDA-MB-435 = test system: MDA-MB-435
Malme-3M = test system: Malme-3M
SF-295 = test system: SF-295
ACHN = test system: ACHN
NCI-H226 = test system: NCI-H226
U-251 = test system: U-251
HOP-62 = test system: HOP-62
CAKI-1 = test system: CAKI-1
COLO 205 = test system: COLO 205
NCI-H23 = test system: NCI-H23
SNB-75 = test system: SNB-75
OVCAR-8 = test system: OVCAR-8
NCI/ADR-RES = test system: NCI/ADR-RES
Hs-578T = test system: Hs-578T

Measured: GI50

N=NCC(=O)OC(COCc1ccccc1)COCc1ccccc1
inactive: UO-31 21.9 µM | MDA-MB-231 > 100 µM | OVCAR-5 > 100 µM | MOLT-4 39.7 µM | CCRF-CEM 57.8 µM | NCI-H460 7.1 µM | MDA-MB-435 > 100 µM | Malme-3M > 100 µM | SF-295 95.5 µM | ACHN 25.9 µM | NCI-H226 > 100 µM | U-251 > 100 µM | HOP-62 > 100 µM | CAKI-1 37.9 µM | COLO 205 96.4 µM | NCI-H23 > 100 µM

CC(=O)/C(=C/N1C(=O)CC(=O)NC1=S)C(=O)Nc1ccccc1C
inactive: UO-31 > 100 µM | MDA-MB-231 > 100 µM | OVCAR-5 > 100 µM | MOLT-4 28 µM | SNB-75 91.6 µM | NCI-H460 39.2 µM | MDA-MB-435 66.8 µM | SF-295 84.3 µM | ACHN 58.9 µM | OVCAR-8 > 100 µM | NCI-H226 > 100 µM | U-251 36 µM | NCI/ADR-RES 39.7 µM | HOP-62 23.3 µM | CAKI-1 87.9 µM | COLO 205 > 100 µM | NCI-H23 41.2 µM

Cc1ccc(S(=O)(=O)Nn2c(O)c(C#N)c(-c3ccc([N+](=O)[O-])cc3)c(C#N)c2=O)cc1
inactive: MDA-MB-231 > 100 µM | OVCAR-5 > 100 µM | MOLT-4 > 100 µM | CCRF-CEM > 100 µM | SNB-75 > 100 µM | NCI-H460 > 100 µM | MDA-MB-435 > 100 µM | Malme-3M > 100 µM | SF-295 > 100 µM | ACHN > 100 µM | OVCAR-8 > 100 µM | NCI-H226 > 100 µM | U-251 > 100 µM | NCI/ADR-RES > 100 µM | HOP-62 > 100 µM | CAKI-1 > 100 µM | COLO 205 > 100 µM

CCC1(C)NN=c2s/c(=C/c3ccc(OC)cc3)c(=O)n2N1 (configuration not stated)
inactive: UO-31 > 100 µM | OVCAR-5 > 100 µM | MOLT-4 > 100 µM | CCRF-CEM > 100 µM | SNB-75 38.2 µM | NCI-H460 > 100 µM | Malme-3M > 100 µM | SF-295 > 100 µM | ACHN > 100 µM | OVCAR-8 > 100 µM | NCI-H226 > 100 µM | U-251 > 100 µM | HOP-62 > 100 µM | CAKI-1 > 100 µM | COLO 205 > 100 µM | NCI-H23 > 100 µM

O=C(Nc1ccc(C(F)(F)F)cc1)NC(F)(F)F
inactive: UO-31 > 100 µM | OVCAR-5 > 100 µM | MOLT-4 > 100 µM | CCRF-CEM > 100 µM | SNB-75 > 100 µM | MDA-MB-435 > 100 µM | Hs-578T > 100 µM | ACHN > 100 µM | OVCAR-8 > 100 µM | U-251 > 100 µM | NCI/ADR-RES > 100 µM | CAKI-1 34.5 µM | COLO 205 > 100 µM | NCI-H23 > 100 µM

CCCN(CCC)CCc1cc(C(C)=O)n(S(=O)(=O)c2ccc(C)cc2)c1
inactive: UO-31 83.2 µM | OVCAR-5 > 100 µM | MOLT-4 > 100 µM | CCRF-CEM > 100 µM | SNB-75 > 100 µM | NCI-H460 > 100 µM | Malme-3M > 100 µM | SF-295 > 100 µM | ACHN > 100 µM | OVCAR-8 > 100 µM | NCI-H226 > 100 µM | U-251 > 100 µM | HOP-62 > 100 µM | CAKI-1 84.7 µM | COLO 205 > 100 µM | NCI-H23 > 100 µM

Cc1ccc(S(=O)(=O)N/N=C2\C=CC3(CC2)C(=O)N(I)c2ccccc23)cc1 (configuration not stated)
inactive: UO-31 > 100 µM | MDA-MB-231 58.7 µM | OVCAR-5 > 100 µM | MOLT-4 42.6 µM | CCRF-CEM 75 µM | SNB-75 > 100 µM | NCI-H460 94.4 µM | MDA-MB-435 > 100 µM | SF-295 41.5 µM | ACHN > 100 µM | OVCAR-8 > 100 µM | NCI-H226 > 100 µM | U-251 > 100 µM | NCI/ADR-RES > 100 µM | HOP-62 > 100 µM | CAKI-1 > 100 µM | COLO 205 > 100 µM | NCI-H23 > 100 µM
active: Malme-3M 0.055 µM

CCc1cc(-c2nsc(=O)o2)c(S(=O)(=O)CC)s1
inactive: UO-31 > 100 µM | OVCAR-5 > 100 µM | MOLT-4 > 10 µM | CCRF-CEM 32.6 µM | SNB-75 > 100 µM | NCI-H460 > 100 µM | MDA-MB-435 55.3 µM | Hs-578T > 100 µM | SF-295 > 100 µM | ACHN > 100 µM | OVCAR-8 88.1 µM | NCI-H226 > 100 µM | U-251 > 100 µM | NCI/ADR-RES > 100 µM | HOP-62 > 100 µM | CAKI-1 56.9 µM | COLO 205 > 100 µM | NCI-H23 45.4 µM

COc1c(C(C)C)cc2c3c1OC(=O)[C@@]31CCCC(C)(C)C1CC2 (some centres not stated)
inactive: UO-31 11.7 µM | OVCAR-5 52.4 µM | MOLT-4 25.1 µM | CCRF-CEM 18.5 µM | SNB-75 22 µM | NCI-H460 40.7 µM | Malme-3M 27.2 µM | SF-295 24.5 µM | ACHN 52.5 µM | OVCAR-8 17.7 µM | NCI-H226 4.92 µM | U-251 20 µM | HOP-62 39.4 µM | CAKI-1 > 100 µM | COLO 205 17.3 µM | NCI-H23 20 µM

CC(C)(C)c1cc2ccc(C(N)=O)cc2c(=O)[nH]1
inactive: UO-31 63.8 µM | OVCAR-5 > 100 µM | MOLT-4 > 100 µM | CCRF-CEM > 100 µM | SNB-75 27.2 µM | NCI-H460 > 100 µM | Malme-3M > 100 µM | SF-295 > 100 µM | ACHN > 100 µM | OVCAR-8 > 100 µM | NCI-H226 56 µM | U-251 51.3 µM | HOP-62 > 100 µM | CAKI-1 80.2 µM | COLO 205 > 100 µM | NCI-H23 > 100 µM

CC(C)OP(=O)(OC(C)C)C(C(C)C)N(C)/C(N)=N\C1=NC(C(F)(F)F)(C(F)(F)F)N=C(C(C(F)(F)F)C(F)(F)F)O1 (configuration not stated)
inactive: UO-31 4.47 µM | MDA-MB-231 1.99 µM | OVCAR-5 2.55 µM | MOLT-4 1.49 µM | SNB-75 2.42 µM | NCI-H460 2.64 µM | MDA-MB-435 1.8 µM | Malme-3M 4.51 µM | Hs-578T 4.99 µM | SF-295 3.66 µM | ACHN 2.59 µM | OVCAR-8 1.99 µM | NCI-H226 2.11 µM | U-251 3.08 µM | HOP-62 3.96 µM | CAKI-1 3.12 µM | COLO 205 1.8 µM | NCI-H23 3.61 µM
active: CCRF-CEM 0.664 µM

N#C/C(=C/NC(=S)c1ccncc1)C(N)=O
inactive: UO-31 > 100 µM | MDA-MB-231 > 100 µM | OVCAR-5 > 100 µM | MOLT-4 > 100 µM | SNB-75 > 100 µM | NCI-H460 > 100 µM | MDA-MB-435 > 100 µM | SF-295 > 100 µM | ACHN > 100 µM | OVCAR-8 > 100 µM | NCI-H226 > 100 µM | U-251 > 100 µM | NCI/ADR-RES > 100 µM | HOP-62 > 100 µM | CAKI-1 > 100 µM | COLO 205 > 100 µM | NCI-H23 > 100 µM

O=S(=O)(O)c1cc(Cl)c(O)c2ncc(Cl)cc12
inactive: UO-31 57 µM | MDA-MB-231 > 100 µM | OVCAR-5 > 100 µM | MOLT-4 15.7 µM | CCRF-CEM 24.6 µM | SNB-75 > 100 µM | NCI-H460 55.5 µM | MDA-MB-435 > 100 µM | SF-295 > 100 µM | ACHN 76 µM | OVCAR-8 37.5 µM | NCI-H226 73.1 µM | U-251 > 100 µM | NCI/ADR-RES 32.8 µM | HOP-62 > 100 µM | CAKI-1 > 100 µM | COLO 205 > 100 µM | NCI-H23 72.4 µM

CCOc1ccc2c(c1)[n+]([O-])c(-c1ccccc1)c(N)[n+]2[O-]
inactive: UO-31 96.4 µM | OVCAR-5 > 100 µM | MOLT-4 46.8 µM | CCRF-CEM 50.7 µM | SNB-75 > 100 µM | NCI-H460 51.6 µM | Malme-3M 66.7 µM | SF-295 > 100 µM | ACHN 55.1 µM | OVCAR-8 78.5 µM | NCI-H226 > 100 µM | U-251 47.6 µM | HOP-62 71.9 µM | CAKI-1 35.6 µM | COLO 205 30.5 µM | NCI-H23 29.9 µM

Nc1ccc(C(=O)NN2C(=O)C(Cl)C2c2cccc([N+](=O)[O-])c2)cc1 (configuration not stated)
inactive: UO-31 17.4 µM | OVCAR-5 21.1 µM | MOLT-4 15.1 µM | CCRF-CEM 9.79 µM | SNB-75 18.7 µM | NCI-H460 59.7 µM | Malme-3M 20.4 µM | SF-295 20.5 µM | ACHN 20.1 µM | OVCAR-8 18.1 µM | NCI-H226 20.2 µM | U-251 13.9 µM | HOP-62 24.6 µM | CAKI-1 19.5 µM | COLO 205 19 µM | NCI-H23 16.4 µM

Nc1ncnc2oc(-c3cccs3)nc12
inactive: UO-31 > 100 µM | MDA-MB-231 > 100 µM | OVCAR-5 > 100 µM | CCRF-CEM > 100 µM | NCI-H460 > 100 µM | MDA-MB-435 > 100 µM | Hs-578T > 100 µM | SF-295 > 100 µM | ACHN > 100 µM | OVCAR-8 > 100 µM | NCI-H226 > 100 µM | U-251 > 100 µM | NCI/ADR-RES > 100 µM | HOP-62 > 100 µM | COLO 205 > 100 µM | NCI-H23 > 100 µM

— ChEMBL document CHEMBL1201862, “PubChem BioAssay data set” (2004)
